From patent US5447942A, “N-derivatives of (phenylethyl-β-ol) amine, a process for their preparation and pharamaceutical compositions containing the same” (Societe de Conseils de Recherches et d'Applications …, priority 1992, dated 1995)
Where two headings read alike, the source gives them in different places.

What was measured:
β adrenoceptors = test: radioligand binding studies in lung membrane (Table A, binding affinity)
Source text: The results are summarised in Table A. Generally, the activity is better for the trans than the cis isomer.

[1] = system: acetylcholine induced bronchoconstriction; test: inhibition of acetylcholine induced bronchoconstriction, Konzett and Rossler method (Table B); format: in vivo, Male Hartley Guinea Pigs; settings: IV; for inhibition in vivo at 0.13 µmol/kg / inhibition in vivo at 0.42 µmol/kg / inhibition in vivo at 1.53 µmol/kg / inhibition in vivo at 3.6 µmol/kg / inhibition in vivo at 0.46 µmol/kg / inhibition in vivo at 1.5 µmol/kg / inhibition in vivo at 1.48 µmol/kg / inhibition in vivo at 0.47 µmol/kg / inhibition in vivo at 0.48 µmol/kg: Cavia porcellus
Method: Male Hartley Guinea Pigs (450-500 g) were anaesthetised with ethyl carbamate and prepared for recording bronchoconstriction according to Konzett and Rossler method (Naunym Schmiedebergers Arch. Exp. Path. Pharmakol (1940) 195, 71). To abolish spontaneous respiration, an injection IV of vecuronium bromide (2 mg/kg) was made. Bronchoconstriction was induced by IV injection of Acetylcholine and the animals received one dose of β agonist compound (IV) 5 minutes later.

[2] = 5 min, 0.13 μmol/kg, 5 mn, read-out: bronchoconstriction protection, score 5 mn
[3] = 0.25 h, 0.13 μmol/kg, 15 mn, read-out: bronchoconstriction protection, score 15 mn
[4] = 0.5 h, 0.13 μmol/kg, 30 mn, read-out: bronchoconstriction protection, score 30 mn
[5] = 5 min, 0.46 μmol/kg, 5 mn, read-out: bronchoconstriction protection, score 5 mn
[6] = 0.25 h, 0.46 μmol/kg, 15 mn, read-out: bronchoconstriction protection, score 15 mn
[7] = 0.5 h, 0.46 μmol/kg, 30 mn, read-out: bronchoconstriction protection, score 30 mn

Structure (SMILES)	Ki (β adrenoceptors)	bronchoconstriction protection, duration of action ([1]; 0.46 μmol/kg)	inhibition in vivo at 0.46 µmol/kg [1, 5]	inhibition in vivo at 0.46 µmol/kg [1, 6]	inhibition in vivo at 0.46 µmol/kg [1, 7]	further results
COc1cc([C@H]2CC[C@H](CNCC(O)c3ccc(O)c(CO)c3)O2)cc(OC)c1OC (relative stereo) [Example 2 (trans), 2-(3',4',5'-trimethoxyphenyl)-5-[N-[β-(3'-hydroxymethyl-4'-hydroxy-phenyl)-β-hydroxy-ethyl]-aminomethyl]-tetrahydrofuran]	80 nM					bronchoconstriction protection, duration of action ([1]; 0.13 μmol/kg): 30 mn; bronchoconstriction protection, duration of action ([1]; 0.42 μmol/kg): > 50 mn; inhibition in vivo at 0.13 µmol/kg [1, 2]: > 75%; inhibition in vivo at 0.42 µmol/kg ([1]; 5 min, 0.42 μmol/kg, 5 mn, read-out: bronchoconstriction protection, score 5 mn): > 75%; inhibition in vivo at 0.13 µmol/kg [1, 3]: 50 to 75%; inhibition in vivo at 0.42 µmol/kg ([1]; 0.25 h, 0.42 μmol/kg, 15 mn, read-out: bronchoconstriction protection, score 15 mn): > 75%; inhibition in vivo at 0.13 µmol/kg [1, 4]: 20 to 50%; inhibition in vivo at 0.42 µmol/kg ([1]; 0.5 h, 0.42 μmol/kg, 30 mn, read-out: bronchoconstriction protection, score 30 mn): > 75%
COc1ccc([C@H]2CC[C@H](CNCC(O)c3ccc(O)c(CO)c3)O2)c(OC)c1OC (relative stereo) [Example 3 (trans), 2-(2',3',4'-trimethoxyphenyl)-5-[N-[β-(3'-hydroxymethyl-4'-hydroxy-phenyl)-β-hydroxy-ethyl]-aminomethyl]-tetrahydrofuran]	1600 nM					bronchoconstriction protection, duration of action ([1]; 1.53 μmol/kg): 5 mn; bronchoconstriction protection, duration of action ([1]; 3.6 μmol/kg): 30 mn; inhibition in vivo at 1.53 µmol/kg ([1]; 5 min, 1.53 μmol/kg, 5 mn, read-out: bronchoconstriction protection, score 5 mn): 20 to 50%; inhibition in vivo at 3.6 µmol/kg ([1]; 5 min, 3.6 μmol/kg, 5 mn, read-out: bronchoconstriction protection, score 5 mn): 50 to 75%; inhibition in vivo at 1.53 µmol/kg ([1]; 0.25 h, 1.53 μmol/kg, 15 mn, read-out: bronchoconstriction protection, score 15 mn): < 20%; inhibition in vivo at 3.6 µmol/kg ([1]; 0.25 h, 3.6 μmol/kg, 15 mn, read-out: bronchoconstriction protection, score 15 mn): 20 to 50%; inhibition in vivo at 1.53 µmol/kg ([1]; 0.5 h, 1.53 μmol/kg, 30 mn, read-out: bronchoconstriction protection, score 30 mn): < 20%; inhibition in vivo at 3.6 µmol/kg ([1]; 0.5 h, 3.6 μmol/kg, 30 mn, read-out: bronchoconstriction protection, score 30 mn): 20 to 50%
COc1ccc([C@H]2CC[C@@H](CNCC(O)c3ccc(O)c(CO)c3)O2)cc1 (relative stereo) [Example 9 (cis), 2-(4'-methoxyphenyl)-5-[N-[β-(3'-hydroxymethyl-4'-hydroxy-phenyl)-β-hydroxy-ethyl]-aminomethyl]-tetrahydrofuran]	810 nM	20 mn	50 to 75%	20 to 50%	< 20%	
COc1cc([C@H]2CC[C@@H](CCCNCC(O)c3ccc(O)c(CO)c3)O2)cc(OC)c1OC (relative stereo) [Example 15 (cis), 2-(3',4',5'-trimethoxyphenyl)-5-[-N-[β-(3'-hydroxymethyl-4'-hydroxy-phenyl)-β-hydroxy-ethyl]-aminopropyl]-tetrahydrofuran]	1900 nM					
COc1cc(C2CCC(CNCC(O)c3ccc(O)c(CO)c3)O2)cc(OC)c1OC (single isomer, unassigned) [Example 2 (trans) (-), 2-(3',4',5'-trimethoxyphenyl)-5-[N-[β-(3'-hydroxymethyl-4'-hydroxy-phenyl)-β-hydroxy-ethyl]-aminomethyl]-tetrahydrofuran]	350 nM					
CCCC1CCC(CNCC(O)c2ccc(O)c(CO)c2)O1 (stereo not drawn) [Example 11, 2-propyl-5-[N-[β-(3'-hydroxymethyl-4'-hydroxy-phenyl)-β-hydroxy-ethyl]-aminomethyl]-tetrahydrofuran]	520 nM					

Continued by falling Ki (β adrenoceptors), values first:

Ki (β adrenoceptors)	Structure (SMILES)	bronchoconstriction protection, duration of action ([1]; 0.46 μmol/kg)	inhibition in vivo at 0.46 µmol/kg [1, 5]	inhibition in vivo at 0.46 µmol/kg [1, 6]	inhibition in vivo at 0.46 µmol/kg [1, 7]	further results
1100 nM	COc1ccc([C@H]2CC[C@@H](CNCC(O)c3ccc(O)c(CO)c3)O2)cc1OC (relative stereo) [Example 8 (cis), 2-(3',4'-dimethoxyphenyl)-5-[N-[β-(3'-hydroxymethyl-4'-hydroxy-phenyl)-β-hydroxyethyl]-aminomethyl]-tetrahydrofuran]					bronchoconstriction protection, duration of action ([1]; 0.48 μmol/kg): < 30 mn; inhibition in vivo at 0.48 µmol/kg ([1]; 5 min, 0.48 μmol/kg, 5 mn, read-out: bronchoconstriction protection, score 5 mn): 50 to 75%; inhibition in vivo at 0.48 µmol/kg ([1]; 0.25 h, 0.48 μmol/kg, 15 mn, read-out: bronchoconstriction protection, score 15 mn): 20 to 50%; inhibition in vivo at 0.48 µmol/kg ([1]; 0.5 h, 0.48 μmol/kg, 30 mn, read-out: bronchoconstriction protection, score 30 mn): < 20%
1050 nM	COc1ccc([C@H]2CC[C@H](CNCC(O)c3ccc(O)c(CO)c3)O2)cc1OC (relative stereo) [Example 8 (trans), 2-(3',4'-dimethoxyphenyl)-5-[N-[β-(3'-hydroxymethyl-4'-hydroxy-phenyl)-β-hydroxyethyl]-aminomethyl]-tetrahydrofuran]	> 30 mn	50 to 75%	50 to 75%	20 to 50%	bronchoconstriction protection, duration of action ([1]; 0.13 μmol/kg): 30 mn; inhibition in vivo at 0.13 µmol/kg [1, 2]: 50 to 75%; inhibition in vivo at 0.13 µmol/kg [1, 3]: 20 to 50%; inhibition in vivo at 0.13 µmol/kg [1, 4]: 20 to 50%
760 nM	OCc1cc(C(O)CNC[C@@H]2CC[C@H](c3cccc(Cl)c3)O2)ccc1O (relative stereo) [Example 5 (cis), 2-(3'-chlorophenyl)-5-[N-[β-(3'-hydroxymethyl-4'-hydroxy-phenyl)-β-hydroxy-ethyl]-aminomethyl]-tetrahydrofuran]					bronchoconstriction protection, duration of action ([1]; 0.47 μmol/kg): < 10 mn; inhibition in vivo at 0.47 µmol/kg ([1]; 5 min, 0.47 μmol/kg, 5 mn, read-out: bronchoconstriction protection, score 5 mn): 20 to 50%; inhibition in vivo at 0.47 µmol/kg ([1]; 0.25 h, 0.47 μmol/kg, 15 mn, read-out: bronchoconstriction protection, score 15 mn): < 20%; inhibition in vivo at 0.47 µmol/kg ([1]; 0.5 h, 0.47 μmol/kg, 30 mn, read-out: bronchoconstriction protection, score 30 mn): < 20%
750 nM	OCc1cc(C(O)CNC[C@H]2CC[C@H](c3cccc(Cl)c3)O2)ccc1O (relative stereo) [Example 5 (trans), 2-(3'-chlorophenyl)-5-[N-[β-(3'-hydroxymethyl-4'-hydroxy-phenyl)-β-hydroxy-ethyl]-aminomethyl]-tetrahydrofuran]	> 20 mn	50 to 75%	20 to 50%	20 to 50%	
590 nM	COc1ccc([C@H]2CC[C@H](CNCC(O)c3ccc(O)c(CO)c3)O2)cc1 (relative stereo) [Example 9 (trans), 2-(4'-methoxyphenyl)-5-[N-[β-(3'-hydroxymethyl-4'-hydroxy-phenyl)-β-hydroxy-ethyl]-aminomethyl]-tetrahydrofuran]	> 30 mn	> 75%	50 to 75%	20 to 50%	
400 nM	OCc1cc(C(O)CNC[C@H]2CC[C@H](c3ccccc3Cl)O2)ccc1O (relative stereo) [Example 4 (trans), 2-(2'-chlorophenyl)-5-[N-[β-(3'-hydroxymethyl-4'-hydroxy-phenyl)-β-hydroxy-ethyl]-aminomethyl]-tetrahydrofuran]	10 mn	> 75%	< 20%	< 20%	bronchoconstriction protection, duration of action ([1]; 1.48 μmol/kg): > 25 mn; inhibition in vivo at 1.48 µmol/kg ([1]; 5 min, 1.48 μmol/kg, 5 mn, read-out: bronchoconstriction protection, score 5 mn): > 75%; inhibition in vivo at 1.48 µmol/kg ([1]; 0.25 h, 1.48 μmol/kg, 15 mn, read-out: bronchoconstriction protection, score 15 mn): 50 to 75%; inhibition in vivo at 1.48 µmol/kg ([1]; 0.5 h, 1.48 μmol/kg, 30 mn, read-out: bronchoconstriction protection, score 30 mn): 50 to 75%
347 nM	OCc1cc(C(O)CNC[C@@H]2CC[C@H](c3ccccc3Cl)O2)ccc1O (relative stereo) [Example 4 (cis), 2-(2'-chlorophenyl)-5-[N-[β-(3'-hydroxymethyl-4'-hydroxy-phenyl)-β-hydroxy-ethyl]-aminomethyl]-tetrahydrofuran]	10 mn	50 to 75%	< 20%	< 20%	bronchoconstriction protection, duration of action ([1]; 1.5 μmol/kg): < 40 mn; inhibition in vivo at 1.5 µmol/kg ([1]; 5 min, 1.5 μmol/kg, 5 mn, read-out: bronchoconstriction protection, score 5 mn): 50 to 75%; inhibition in vivo at 1.5 µmol/kg ([1]; 0.25 h, 1.5 μmol/kg, 15 mn, read-out: bronchoconstriction protection, score 15 mn): 50 to 75%; inhibition in vivo at 1.5 µmol/kg ([1]; 0.5 h, 1.5 μmol/kg, 30 mn, read-out: bronchoconstriction protection, score 30 mn): 20 to 50%
50 nM	COc1cc(C2CCC(CNCC(O)c3ccc(O)c(CO)c3)O2)cc(OC)c1OC (single isomer, unassigned) [Example 2 (trans) (+), 2-(3',4',5'-trimethoxyphenyl)-5-[N-[β-(3'-hydroxymethyl-4'-hydroxy-phenyl)-β-hydroxy-ethyl]-aminomethyl]-tetrahydrofuran]					
